Measurements as given in patent US11596626B2, “Compound for use against pathogenic Neisseria and Haemophilus species and Moraxella catarrhalis” (priority 2017, dated 2023).

Legend:
Lactobacillus brevis = assay: Growth curves in liquid culture (optical density) vs DMSO control; type: cell-based; conditions: 5-50 μM, FIG. 4
Description: Growth experiments with NQNO were conducted against Neisseria gonorrhoeae strain MS11 (Edwards, M., et al., Antigenic analysis of gonococcal pili using monoclonal antibodies, J Exp Med, 1984. 160(6): p. 1782-91) and a multidrug-resistant N. gonorrhoeae isolate from Slovenia (Unemo M, Golparian O, Potočnik M, Jeverica S. Treatment failure of pharyngeal gonorrhoea with internationally recommended first-line ceftriaxone verified in Slovenia, September 2011. Euro Surveill. 2012; 17(25):pii=20200), Neisseria macacae, and Lactobacillus brevis. The bacteria were inoculated in GC (Difco™ GC medium Ref. 228950, BD Becton Dickinson) and PPM broth (15 g/L Proteon Pepton, 1 g/L soluble starch, 5 g/L NaCl, 4 g/L KH2PO4, 1 g/L K2HPO4, pH 7.5) (Neisseriae) or TSB (BBL™ Trypticase Soy Broth Ref 211768, BD Becton Dickinson) (Lactobacillus) supplemented with solvent (DMSO) or the indicated concentrations of NQNO (5-50 04) and their growth at 37° C. was monitored over the course of 10 h by optical density readings in 30 minute intervals. […]
Before every experiment, bacteria were pre-cultured in 5 ml liquid medium for at least 2 hours then harvested and resuspended in PBS (phosphate buffered saline). Optical density (OD) was determined and a volume equal to an OD of 0.2 was inoculated into 5 ml of the respective medium. […] Optical density was determined every 0.5 h.

[1] = Stability in deuterated methanol by proton NMR; type: physicochemical; conditions: 25 mM in deuterated methanol, 25° C. or 37° C., 28 days
Description: Two samples of NQNO were dissolved in deuterated methanol (CD3OD) to reach a final concentration of 25 mM. Samples were kept at 25° C. or 37° C. for 28 days and proton NMR spectra were measured with the same acquisition parameters every week and the spectra compared with the ones from day 0.

Compound: CCCCCCCCCc1cc(=O)c2ccccc2n1O [NQNO, 1-Hydroxy-2-nonylquinolin-4(1H)-one]
- Effect on growth (Lactobacillus brevis): did not compromise the growth
- Stability in solvent [1]: stable at 37 °C in deuterated methanol for at least one month
